Patent publication US20260250272A1, “N-SUBSTITUTED QUINOLINONE COMPOUND, PREPARATION METHOD THEREFOR AND USE THEREOF” (VIGONVITA LIFE SCIENCES CO., LTD., priority 2022, published 2026)
≈ marks a conversion by molar mass, not a printed value.

Assays:
[1] = Oil solubility test in benzyl benzoate (HPLC); format: physicochemical; conditions: organic solvent or mixture, thermodynamic from solid, 25° C., shaken 2 h
Protocol: The solubility test was performed by quantitative analysis using an external standard method of high-performance liquid chromatography.
Reference sample solution: 10 mg of reference sample was weighed, placed in a 20 mL volumetric flask, diluted to the scale with 80% acetonitrile, and shaken uniformly.
Test sample solution: an appropriate amount of sample was dissolved in benzyl benzoate to obtain a saturated solution. The mixture was placed in a shaker and shaken at 25° C. and 800 rpm for 2 h. The sample solution was filtered, and 100 μL of filtrate was added to a 10 mL volumetric flask, diluted to the scale with 80% acetonitrile, and shaken uniformly.

[2] = target: T1, hERG potassium channel (Homo sapiens, UniProt Q12809); assay: hERG potassium channel block, automatic patch clamp (QPatch, CHO cells); format: cell-based; conditions: CHO cells stably expressing hERG, highest concentration 20 μM; read-out: hERG inhibition (IC50)
T1 construct: expressed in transfected cells
T1 sequence (Q12809 whole entry): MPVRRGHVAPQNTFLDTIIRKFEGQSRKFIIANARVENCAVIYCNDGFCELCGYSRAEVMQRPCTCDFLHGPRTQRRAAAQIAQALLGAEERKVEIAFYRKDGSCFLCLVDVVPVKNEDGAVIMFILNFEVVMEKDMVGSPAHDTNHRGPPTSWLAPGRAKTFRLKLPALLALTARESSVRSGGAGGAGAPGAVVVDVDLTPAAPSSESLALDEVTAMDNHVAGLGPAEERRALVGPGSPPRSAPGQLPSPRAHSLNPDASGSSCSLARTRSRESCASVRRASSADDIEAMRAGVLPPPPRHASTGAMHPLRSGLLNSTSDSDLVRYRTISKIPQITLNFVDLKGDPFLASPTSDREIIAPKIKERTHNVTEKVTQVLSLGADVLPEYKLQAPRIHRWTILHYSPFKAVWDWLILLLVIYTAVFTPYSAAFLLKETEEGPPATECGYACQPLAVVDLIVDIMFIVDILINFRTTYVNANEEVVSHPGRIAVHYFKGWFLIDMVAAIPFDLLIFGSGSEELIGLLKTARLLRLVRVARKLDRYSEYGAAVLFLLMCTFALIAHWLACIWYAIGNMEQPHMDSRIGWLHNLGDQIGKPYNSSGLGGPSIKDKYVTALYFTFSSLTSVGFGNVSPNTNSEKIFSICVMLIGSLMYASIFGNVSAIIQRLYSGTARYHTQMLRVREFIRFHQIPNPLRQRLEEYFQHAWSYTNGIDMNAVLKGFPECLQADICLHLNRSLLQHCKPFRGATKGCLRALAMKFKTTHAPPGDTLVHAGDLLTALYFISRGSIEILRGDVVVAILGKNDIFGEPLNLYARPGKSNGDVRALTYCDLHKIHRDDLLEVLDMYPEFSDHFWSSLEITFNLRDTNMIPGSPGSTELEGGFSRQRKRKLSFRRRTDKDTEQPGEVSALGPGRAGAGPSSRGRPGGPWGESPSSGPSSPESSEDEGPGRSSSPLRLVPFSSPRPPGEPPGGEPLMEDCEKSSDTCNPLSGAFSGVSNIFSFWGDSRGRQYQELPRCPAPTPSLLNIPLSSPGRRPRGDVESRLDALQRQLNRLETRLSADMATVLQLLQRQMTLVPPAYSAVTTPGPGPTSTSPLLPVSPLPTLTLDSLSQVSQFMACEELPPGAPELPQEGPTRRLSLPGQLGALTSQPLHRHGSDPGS
Protocol: The hERG potassium channel block experiment was performed using the full-automatic patch-clamp technique (QPatch^HTX, Sophion, Stockholm, Sweden). The cell line is CHO cells stably expressing the hERG potassium channel. The compounds were tested at the highest test concentration of 20 μM in 3-fold dilution (n=3).

[3] = target: human recombinant D2L receptor (Homo sapiens, UniProt P14416); assay: Antagonistic activity against the D2L receptor (LANCE Ultra cAMP, CHO cells)
Chain of human recombinant D2L receptor (P14416 whole entry): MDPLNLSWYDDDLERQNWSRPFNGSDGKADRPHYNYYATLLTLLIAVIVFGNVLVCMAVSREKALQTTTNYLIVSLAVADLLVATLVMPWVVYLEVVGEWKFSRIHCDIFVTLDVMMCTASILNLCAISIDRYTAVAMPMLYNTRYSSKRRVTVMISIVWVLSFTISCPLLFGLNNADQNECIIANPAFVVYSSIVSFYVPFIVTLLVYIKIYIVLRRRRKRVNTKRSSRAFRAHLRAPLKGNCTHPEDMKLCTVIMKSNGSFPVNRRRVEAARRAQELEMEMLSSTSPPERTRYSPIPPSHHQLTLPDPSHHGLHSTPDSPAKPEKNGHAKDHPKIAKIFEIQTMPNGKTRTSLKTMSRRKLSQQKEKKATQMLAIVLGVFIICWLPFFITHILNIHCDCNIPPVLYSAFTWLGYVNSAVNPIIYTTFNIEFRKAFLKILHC
Protocol: The antagonistic effect of the compounds on the D2L receptor in the CHO cells expressing the human recombinant D2L receptor was assayed by using the LANCE® Ultra cAMP kit (PerkinElmer, USA). […] Amisulpride was used as a positive control.

[4] = target: T2, human recombinant 5-HT2A receptor (Homo sapiens, UniProt P28223); assay: Antagonistic activity against the 5-HT2A receptor (IP-One-Gq, CHO cells); format: cell-based; conditions: serotonin stimulation
T2 construct: expressed in transfected cells; host or cells: CHO (5-HT2A-CHO)
T2 sequence (P28223 whole entry): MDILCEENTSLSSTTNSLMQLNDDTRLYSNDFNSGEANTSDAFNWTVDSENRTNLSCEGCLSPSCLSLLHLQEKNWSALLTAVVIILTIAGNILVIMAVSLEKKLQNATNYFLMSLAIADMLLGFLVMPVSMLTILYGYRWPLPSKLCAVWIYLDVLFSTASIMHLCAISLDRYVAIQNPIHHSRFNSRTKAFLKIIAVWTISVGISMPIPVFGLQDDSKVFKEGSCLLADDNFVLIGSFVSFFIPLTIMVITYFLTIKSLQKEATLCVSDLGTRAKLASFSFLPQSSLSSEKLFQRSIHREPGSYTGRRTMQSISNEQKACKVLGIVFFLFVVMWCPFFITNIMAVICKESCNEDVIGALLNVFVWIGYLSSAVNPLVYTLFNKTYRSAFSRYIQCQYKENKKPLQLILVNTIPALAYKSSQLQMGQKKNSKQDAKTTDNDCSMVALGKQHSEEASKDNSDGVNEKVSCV
Protocol: The antagonistic effect of the compounds on the 5-HT2A receptor in the CHO cells expressing the human recombinant 5-HT2A receptor was assayed by using the IP-One-Gq kit (Cisbio). […] Risperidone was used as a positive control.

[5] = target: T3, human SERT (Homo sapiens, UniProt P31645); assay: cell-based; conditions: HEK-hSERT cells; read-out: Inhibitory activity against 5-HT transporter (IC50)
T3 construct: expressed in transfected cells; host or cells: HEK-293 (HEK-hSERT)
T3 sequence (P31645 whole entry): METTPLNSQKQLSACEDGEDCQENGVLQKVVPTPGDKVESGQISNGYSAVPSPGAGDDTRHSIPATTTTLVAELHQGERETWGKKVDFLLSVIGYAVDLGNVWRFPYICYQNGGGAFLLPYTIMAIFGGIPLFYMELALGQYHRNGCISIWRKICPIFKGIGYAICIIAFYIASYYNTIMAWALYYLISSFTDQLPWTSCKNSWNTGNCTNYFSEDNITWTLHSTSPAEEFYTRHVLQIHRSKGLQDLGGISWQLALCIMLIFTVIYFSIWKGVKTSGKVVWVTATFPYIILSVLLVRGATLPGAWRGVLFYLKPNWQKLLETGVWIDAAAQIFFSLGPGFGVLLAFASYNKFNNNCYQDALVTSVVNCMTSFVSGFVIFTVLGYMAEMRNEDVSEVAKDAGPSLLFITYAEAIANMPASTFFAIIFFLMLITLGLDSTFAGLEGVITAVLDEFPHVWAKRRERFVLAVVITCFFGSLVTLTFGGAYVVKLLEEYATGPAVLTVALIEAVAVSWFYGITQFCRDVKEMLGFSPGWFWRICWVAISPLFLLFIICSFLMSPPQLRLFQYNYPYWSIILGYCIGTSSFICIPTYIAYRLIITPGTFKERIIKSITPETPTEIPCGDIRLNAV
Protocol: The inhibitory effect of the compounds on the 5-HT transporter in the HEK-293 cells expressing human SERT was evaluated by using the neurotransmitter transporter uptake assay kit (Molecular Devices).

[6] = target: T4, human recombinant 5-HT1A receptor (Homo sapiens, UniProt P08908); assay: Agonistic activity against the 5-HT1A receptor (LANCE cAMP, HEK293 cells); format: cell-based; conditions: inhibition of cAMP production
T4 construct: expressed in transfected cells; host or cells: HEK293
T4 sequence (P08908 1-422): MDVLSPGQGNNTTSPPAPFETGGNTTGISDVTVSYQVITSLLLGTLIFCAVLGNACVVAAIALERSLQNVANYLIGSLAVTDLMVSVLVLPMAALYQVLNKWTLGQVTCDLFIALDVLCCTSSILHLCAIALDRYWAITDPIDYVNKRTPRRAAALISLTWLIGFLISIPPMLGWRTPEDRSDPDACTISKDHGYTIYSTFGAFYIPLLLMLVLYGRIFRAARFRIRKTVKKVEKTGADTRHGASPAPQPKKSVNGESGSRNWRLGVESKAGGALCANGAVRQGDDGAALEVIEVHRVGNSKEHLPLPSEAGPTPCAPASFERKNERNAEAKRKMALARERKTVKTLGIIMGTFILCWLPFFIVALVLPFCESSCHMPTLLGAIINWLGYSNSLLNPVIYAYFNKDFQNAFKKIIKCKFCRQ

[7] = target: human D3 receptor (Homo sapiens, UniProt P35462); assay: cell-based
Chain of human D3 receptor (P35462 whole entry): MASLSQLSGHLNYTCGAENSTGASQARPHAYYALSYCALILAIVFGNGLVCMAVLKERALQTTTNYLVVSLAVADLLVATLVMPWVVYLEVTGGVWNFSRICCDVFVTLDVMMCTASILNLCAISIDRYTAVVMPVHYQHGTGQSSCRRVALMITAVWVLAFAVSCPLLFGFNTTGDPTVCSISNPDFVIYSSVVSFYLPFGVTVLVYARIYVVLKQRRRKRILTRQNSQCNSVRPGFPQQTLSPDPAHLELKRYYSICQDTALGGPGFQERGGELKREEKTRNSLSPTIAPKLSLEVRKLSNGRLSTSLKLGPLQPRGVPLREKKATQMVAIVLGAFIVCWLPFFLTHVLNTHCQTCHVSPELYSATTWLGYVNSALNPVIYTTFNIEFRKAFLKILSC

[8] = Human liver microsome assay; format: in vitro ADME; conditions: for half-life at 1 μM / CLint scaled at 1 μM: pH 7.41, human liver microsomes 0.5 mg/mL, compound 1 μM, NADPH 2 mM; for half-life at 1 μM: read-out: Half-life (t1/2, min); for CLint scaled at 1 μM: read-out: Intrinsic clearance (Clint, mL/min/kg)
Protocol: Preparation of magnesium-potassium buffer solution: a 100 mM potassium buffer and 5 mM MgCl2 were preheated together to obtain a magnesium-potassium buffer at a pH of 7.41. Preparation of 0.5 mM working solution: a 10 mM compound stock solution was added to 95 μL of acetonitrile. Preparation of 1.5 μM working solution containing microsomes (0.75 mg/mL): 1.5 μL of the 0.5 mM working solution and 18.75 μL of 20 mg/mL human liver microsome solution were added to 479.75 μL of the magnesium-potassium buffer. Preparation of NADPH stock solution (6 mM, 5 mg/mL): NADPH was dissolved in the magnesium-potassium buffer. 30 μL of 1.5 μM working solution containing 0.75 mg/mL human liver microsomes were added to each of the wells of a 96-well plate, and the plate was pre-incubated at 37° C. for 5 min. For a sample at 0 min, 150 μL of acetonitrile solution containing an internal standard was added, and then 15 μL of NADPH stock solution (6 mM) was added to initiate the reaction. For samples at other time points, 15 μL of NADPH stock solution (6 mM) was directly added to initiate the reaction. Final content of components: compound (1 μM), human liver microsomes (0.5 mg/mL), and NADPH (2 mM). 150 μL of cold stop buffer containing an internal standard was added at time points of 5 min, 15 min, 30 min, and 45 min to stop the sample reaction, the plate was centrifuged at 600 rpm for 10 min and then at 6000 rpm for 15 min, and the supernatant was taken for LC-MS/MS analysis.
A standard curve of the ln residual rate of the drug in the incubation system with respect to the incubation time was plotted by using Excel software, linear regression was performed to obtain a slope k, and the half-life T1/2 (min) and the intrinsic clearance CLint (mL/min/kg) value were calculated according to the following formula: […]

[9] = Pharmacokinetic experiment in rats, intramuscular injection; format: in vivo; conditions: SD male rats, 43.3 mmol/kg, benzyl benzoate vehicle, up to day 36
Protocol: The pharmacokinetic experiment in rats was performed on compounds 2, 3, 5, 6, 7, and 8 (non-fasting SD male rats, administered intramuscularly, at a dose of 43.3 mmol/kg, n=3). The vehicle was benzyl benzoate, the injection site was the thigh muscle of the hind limb, and about 0.3 mL of blood samples were collected from the jugular vein of rats at blood collection time points of day 0.25, day 2, day 4, day 6, day 8, day 15, day 22, day 29, and day 36. The collected blood was stored under ice-cold conditions, plasma was rapidly isolated by centrifugation and the precipitant was added, and the concentration of compound 1 (active metabolite) was quantitatively determined by LCMS.

solubility at 2 h [1] [mg/mL] | half-life at 1 μM [8] [min] | CLint scaled at 1 μM [8] [mL/min/kg] | Compound | other results
22.4 (≈ 54.6 mM) | – | – | O=C1CCc2ccc(CCN3CCN(c4cc(F)cc5sccc45)CC3)cc2N1 [Compound 1-a, 7-(2-(4-(6-fluorophenothiophen-4-yl)piperazin-1-yl)ethyl)-3,4-dihydroquinolin-2(1H)-one, reference compound] | IC50 [2]: 920 nM; IC50 [3]: 4.4 nM; IC50 [4]: 33 nM
– | – | – | O=C1CCc2ccc(CCN3CCN(c4cc(F)cc5sccc45)CC3)cc2N1CO [Compound 1] | IC50 [2]: 1810 nM; IC50 [5]: 13 nM; IC50 [3]: 3.5 nM; IC50 [4]: 32 nM; EC50 [6]: 0.7 nM; EC50 [7]: 7.1 nM
75 (≈ 143 mM) | 0.69 | 2530 | CC(C)OC(=O)OCN1C(=O)CCc2ccc(CCN3CCN(c4cc(F)cc5sccc45)CC3)cc21 [Compound 2] | –
> 200 | 367 | 4.73 | CCCCCCCCCCCC(=O)OCN1C(=O)CCc2ccc(CCN3CCN(c4cc(F)cc5sccc45)CC3)cc21 [Compound 3] | –
23.4 (≈ 48.7 mM) | 0.87 | 2000 | CC(=O)OCN1C(=O)CCc2ccc(CCN3CCN(c4cc(F)cc5sccc45)CC3)cc21 [Compound 5] | –
166 (≈ 317 mM) | 1 | 1720 | CCCCC(=O)OCN1C(=O)CCc2ccc(CCN3CCN(c4cc(F)cc5sccc45)CC3)cc21 [Compound 6] | –
> 200 | 30 | 56.8 | CCCCCCCCCC(=O)OCN1C(=O)CCc2ccc(CCN3CCN(c4cc(F)cc5sccc45)CC3)cc21 [Compound 7, (7-(2-(4-(6-fluorobenzo[b]thiophen-4-yl)piperazin-1-yl)ethyl)-2-oxo-3,4-dihydroquinolin-1(2H)-yl)methyl decanoate] | Metabolic stability in human liver microsomes (in words) [8]: good metabolic stability
> 200 | > 120 | – | CCCCCCCCCCCCCCCC(=O)OCN1C(=O)CCc2ccc(CCN3CCN(c4cc(F)cc5sccc45)CC3)cc21 [Compound 8, (7-(2-(4-(6-fluorobenzo[b]thiophen-4-yl)piperazin-1-yl)ethyl)-2-oxo-3,4-dihydroquinolin-1(2H)-yl)methyl palmitate] | Metabolic stability in human liver microsomes (in words) [8]: good metabolic stability; Fluctuation in the plasma concentration of the active metabolite (compound 1) [9]: minimal fluctuation
